Test results taken from US12459951B2, “Compounds that interact with RAS superfamily proteins for treatment of cancers, inflammatory diseases, rasopathies, and fibrotic disease” (SHY Therapeutics, LLC, priority 2022, dated 2025).

Legend:
Erk1/2 phosphorylation = test: Erk1/2 Phosphorylation Assay (western blot), Panc-1; type: cell-based, human; conditions: at 10 μM, * = activation
In short: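 Phospho-Erk1/2 (Thr202/Tyr204) was detected by western blot in lysates of Panc-1 cells (KRas G12D). These had 6 h, 37° C exposure to 10 μM compound or a dilution series for IC50, in 0.3% DMSO. Cells were either starved overnight in 0.5% FBS with a 15-min 1.5 ng/ml EGF pulse, or kept unstimulated in 10% FBS.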

KRas G12D mutant = test: Ras GTP Binding Domain Inhibition Assay (Ras Superfamily Assay); conditions: 20 μM compound; for KRas G12D mutant + SOS: % inh.: with SOS; for KRas G12D mutant: % inh.: without SOS
In short: (§1)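 His-tagged GTPases immobilised on nickel-coated plates, pre-incubated with compound (20 μM single point, or serial dilution for IC50) 3 h at room temperature, with or without 10-30 μg/mL Sos (residues 556-1049) in the final hour. Bound Cy3- or Cy5-GTP (100 nM, 45 min) measured by fluorescence after washing.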

KRas wild type = test: as above; conditions: 20 μM compound; for KRas wild type + SOS: % inh.: with SOS; for KRas wild type: % inh.: without SOS
In short: as §1

Rac-1 = target: T1, Rac-1 (Homo sapiens, UniProt P63000); test: as above; conditions: read-out: Rac-1: % inh.
T1 construct: made in house
In short: as §1

SMILES	% inh of Erk1/2 phosphorylation in Panc-1 (Erk1/2 phosphorylation)	KRas G12D mutant + SOS: % inh. (KRas G12D mutant)	KRas G12D mutant: % inh. (KRas G12D mutant)	KRas wild type + SOS: % inh. (KRas wild type)	KRas wild type: % inh. (KRas wild type)	inhibition at 20 µM (Rac-1) [%]
COCCO[C@H]1C[C@H](Nc2nc(-c3nccn3C)nn3cc(-c4ccnc(OC)c4)c(C)c23)C1 [Compound 161, N-((1r,3r)-3-(2-Methoxy-ethoxy)cyclo-butyl)-6-(2-methoxy-pyridin-4-yl)-5-methyl-2-(1-methyl-1H-imidazol-2-yl)pyrrolo[2,1-f][1,2,4]triazin-4-amine]	A (1-25% inhibition)	0 (0 = 0% inhibition)	A (A = 1-25% inhibition)	0 (0 = 0% inhibition)	A (A = 1-25% inhibition)	1 to 25
COc1cc(Nc2nc(-c3nccn3C)nn3cc(-c4ccn(C(F)F)n4)c(C)c23)ncn1 [Compound 98, 6-(1-(Difluoromethyl)-1H-pyrazol-3-yl)-N-(6-methoxypyrimidin-4-yl)-5-methyl-2-(1-methyl-1H-imidazol-2-yl)pyrrolo[2,1-f][1,2,4]triazin-4-amine]	D* (85-100% activation)	C (C = 50-75% inhibition)	C (C = 50-75% inhibition)	A (A = 1-25% inhibition)	C (C = 50-75% inhibition)	50 to 75
Cc1c(-c2ccn(C3CC3)n2)cn2nc(-c3nccn3C)nc(Nc3cc(OC(F)(F)F)ccn3)c12 [Compound 138, 6-(1-Cyclopropyl-1H-pyrazol-3-yl)-5-methyl-2-(1-methyl-1H-imidazol-2-yl)-N-(4-(trifluoromethoxy)pyridin-2-yl)pyrrolo[2,1-f][1,2,4]triazin-4-amine]	D* (85-100% activation)	D (D = 76-100% inhibition)	D (D = 76-100% inhibition)	D (D = 76-100% inhibition)	C (C = 50-75% inhibition)	50 to 75
CO[C@H]1C[C@H](Nc2nc(-c3nccn3C)nn3cc(-c4ccncc4)c(C)c23)C1 [Compound 159, N-((1r,3r)-3-Methoxycyclobutyl)-5-methyl-2-(1-methyl-1H-imidazol-2-yl)-6-(pyridin-4-yl)pyrrolo[2,1-f][1,2,4]triazin-4-amine]	A (1-25% inhibition)	0 (0 = 0% inhibition)	0 (0 = 0% inhibition)	0 (0 = 0% inhibition)	A (A = 1-25% inhibition)	0
Cc1c(-c2ccn(C(C)C)n2)cn2nc(-c3nccn3C)nc(Nc3nccn3C)c12 [Compound 93, 6-(1-Isopropyl-1H-pyrazol-3-yl)-5-methyl-N,2-bis(1-methyl-1H-imidazol-2-yl)pyrrolo[2,1-f][1,2,4]triazin-4-amine]	D (85-100% inhibition)	D (D = 76-100% inhibition)	D (D = 76-100% inhibition)	D (D = 76-100% inhibition)	D (D = 76-100% inhibition)	76 to 100
CO[C@H]1C[C@@H](Nc2nc(-c3nccn3C)nn3cc(-c4cccnc4)c(C)c23)C1 [Compound 153, N-((1s,3s)-3-methoxy-cyclobutyl)-5-methyl-2-(1-methyl-1H-imidazol-2-yl)-6-(pyridin-3-yl)pyrrolo[2,1-f][1,2,4]triazin-4-amine]	A (1-25% inhibition)	C (C = 50-75% inhibition)	C (C = 50-75% inhibition)	B (B = 26-49% inhibition)	B (B = 26-49% inhibition)	50 to 75
COCCOc1cc(Nc2nc(-c3nccn3C)nn3cc(-c4ccn(C(C)C)n4)c(C)c23)ncn1 [Compound 122, 6-(1-Isopropyl-1H-pyrazol-3-yl)-N-(6-(2-methoxyethoxy)pyrimidin-4-yl)-5-methyl-2-(1-methyl-1H-imidazol-2-yl)pyrrolo[2,1-f][1,2,4]triazin-4-amine]	A* (1-25% activation)	D (D = 76-100% inhibition)	D (D = 76-100% inhibition)	D (D = 76-100% inhibition)	D (D = 76-100% inhibition)	76 to 100
Cc1c(-c2ccn(C)n2)cn2nc(-c3nccn3C)nc(Nc3n[nH]c(C4CC4)n3)c12 [Compound 113, N-(5-Cyclopropyl-1H-1,2,4-triazol-3-yl)-5-methyl-2-(1-methyl-1H-imidazol-2-yl)-6-(1-methyl-1H-pyrazol-3-yl)pyrrolo[2,1-f][1,2,4]triazin-4-amine]	D* (85-100% activation)	D (D = 76-100% inhibition)	D (D = 76-100% inhibition)	D (D = 76-100% inhibition)	C (C = 50-75% inhibition)	76 to 100
Cc1c(-c2ccn(C)n2)cn2nc(-c3nccn3C)nc(Nc3ncccn3)c12.Cl [Compound 115, 5-Methyl-2-(1-methyl-1H-imidazol-2-yl)-6-(1-methyl-1H-pyrazol-3-yl)-N-(pyrimidin-2-yl)pyrrolo[2,1-f][1,2,4]triazin-4-amine hydrochloride salt]	C (50-84% inhibition)	C (C = 50-75% inhibition)	C (C = 50-75% inhibition)	C (C = 50-75% inhibition)	D (D = 76-100% inhibition)	1 to 25
Cc1c(-c2ccn(C)n2)cn2nc(-c3nccn3C)nc(Nc3cc(OC(C)C)ccn3)c12 [Compound 136, N-(4-Isopropoxypyridin-2-yl)-5-methyl-2-(1-methyl-1H-imidazol-2-yl)-6-(1-methyl-1H-pyrazol-3-yl)pyrrolo[2,1-f][1,2,4]triazin-4-amine]	D* (85-100% activation)	D (D = 76-100% inhibition)	D (D = 76-100% inhibition)	D (D = 76-100% inhibition)	C (C = 50-75% inhibition)	76 to 100
CO[C@H]1CC[C@@H](Nc2nc(-c3nccn3C)nn3cc(-c4cccnc4)c(C)c23)C1 (racemic) [Compound 155, rac N-((1R,3S)-3-methoxy-cyclopentyl)-5-methyl-2-(1-methyl-1H-imidazol-2-yl)-6-(pyridin-3-yl)pyrrolo[2,1-f][1,2,4]triazin-4-amine]	A* (1-25% activation)	A (A = 1-25% inhibition)	A (A = 1-25% inhibition)	A (A = 1-25% inhibition)	A (A = 1-25% inhibition)	1 to 25
Cc1c(-c2ccn(C(C)C)n2)cn2nc(-c3nccn3C)nc(Nc3ncc[nH]3)c12 [Compound 125, N-(1H-Imidazol-2-yl)-6-(1-isopropyl-1H-pyrazol-3-yl)-5-methyl-2-(1-methyl-1H-imidazol-2-yl)pyrrolo[2,1-f][1,2,4]triazin-4-amine]	A (1-25% inhibition)	C (C = 50-75% inhibition)	C (C = 50-75% inhibition)	B (B = 26-49% inhibition)	C (C = 50-75% inhibition)	50 to 75
CO[C@H]1C[C@H](Nc2nc(-c3nccn3C)nn3cc(-c4cccnc4)c(-c4ccccn4)c23)C1 [Compound 168, N-((1r,3r)-3-Methoxycyclobutyl)-2-(1-methyl-1H-imidazol-2-yl)-5-(pyridin-2-yl)-6-(pyridin-3-yl)pyrrolo[2,1-f][1,2,4]triazin-4-amine]	0 (0% inhibition)	A (A = 1-25% inhibition)	B (B = 26-49% inhibition)	A (A = 1-25% inhibition)	A (A = 1-25% inhibition)	1 to 25
